Measurements published in article PMC6609550, “Blockade of the forward Na^+/Ca^2+ exchanger suppresses the growth of glioblastoma cells through Ca^2+‐mediated cell death” (British Journal of Pharmacology, 2019).

Experiments:
[1] = Cell viability assay (Cell Counting Kit-8), ranges given for U87 and U251 together; type: cell-based, Human; conditions: human, U87 and U251 cells, read-out: Cell viability, % of control level
Description: (§1) Cell viability was determined by using a Cell Counting Kit‐8 (Dojindo, Japan). Briefly, cells were harvested from flasks and plated in 96‐well cell culture plates at 5 × 10^3 per well and cultured overnight. Cells were treated with test reagents for 72 hr. Control cells were treated with cell culture medium and measured at the same time point as treatment groups. CCK‐8 solution (10 μl) was added to each well of the 96‐well plates, and the cultures were incubated for 30 min at 37°C. Absorbance at 450 nm was measured using an automatic microplate reader (Molecular Devices, San Jose, CA, USA).

[2] = tested on: [Ca^2+]i in U87 cells; assay: Ca2+ imaging (Fluo-4 AM) of U87 cells; type: cell-based, Human; conditions: for Effect on [Ca2+]i level in Ca2+-free solution / Effect on intracellular Ca2+ pool and ER Ca2+ transporting: Ca2+‐free solution; for Effect on intracellular Ca2+ pool and ER Ca2+ transporting: followed by 5‐μM thapsigargin; for Effect on [Ca2+]i level: solution containing 2‐mM Ca2+, bepridil or KB‐R7943 25 or 50 μM, CB‐DMB 2 and 4 μM
Description: (§2) Cells were cultured in 96‐well plates at 8 × 10^3 per well and loaded with the cell membrane‐permeable Ca^2+ dye Fluo‐4 AM (5 μM) in 100‐μl HEPES‐buffered solution for 50 min. The solution contained (mM): 135 NaCl, 3 KCl, 2 CaCl2, 1 MgCl2, 10 glucose, and 10 HEPES, supplemented with 1% FBS at pH 7.4. To prepare the Ca^2+‐free solution, 2‐mM CaCl2 was replaced with 1‐mM EGTA in the HEPES‐buffered solution. The 96‐well plate containing the Fluo‐4 AM‐loaded cells was mounted in a Leica TCS SP8 confocal system (Leica Microsystems, Wetzlar, Germany). The confocal microscope armed with 488‐nm laser light was employed to excite the dynamic fluorescent signals in time and synchronously, while test regents were added to cells. To do Na^+ imaging, Fluo‐4 AM was replaced with the cell membrane‐permeable Na^+ dye Asante NaTrium Green‐2 AM (ANG‐2 AM) at 5 μM, which was excited by 514‐nm laser light. Visual inspection and fluorescent imaging were carried out at room temperature. The imaging data were analysed with the software https://leica-las-af-lite.software.informer.com/ 2.5 (Leica). The imaging traces shown are representative of at least three separate experiments; 12–18 cells were imaged in each experiment.

[3] = tested on: [Na^+]i in U87 cells; assay: Na+ imaging (ANG-2 AM) of U87 cells; type: cell-based, Human; conditions: bepridil 50 μM, KB‐R7943 50 μM, CB‐DMB 4 μM
Description: as §2

[4] = tested on: JNK; assay: Western blot of phosphorylated and total JNK in U87 cells; type: cell-based, Human; conditions: 25 μM, 10, 30, 60 and 90 min
Description: After treatment with bepridil for 0, 30, 60, and 90 min, cells were collected and lysed in RIPA buffer (Beyotime, Nanjing, China) supplemented with protease inhibitor (Beyotime). The total protein concentration of each sample was determined using the BCA Protein Assay Kit (Sangon Biotech, Shanghai, China). Equal protein extracts (45‐μg protein per lane) were separated by SDS‐PAGE and electrophoretically transferred to PVDF membranes (Millipore, Bedford, MA, USA). Then, the membranes were incubated with anti‐phosphorylated and total http://www.guidetopharmacology.org/GRAC/FamilyDisplayForward?familyId=514, http://www.guidetopharmacology.org/GRAC/FamilyDisplayForward?familyId=518, and http://www.guidetopharmacology.org/GRAC/FamilyDisplayForward?familyId=519 antibodies (1:1,000; Cell Signaling Technology) at 4°C overnight, followed by incubation with IRDye 680LT fluorescent secondary antibody (LI‐COR Biosciences, Lincoln, NE, USA). Proteins were visualized using the Odyssey Fc Imaging System (LI‐COR Biosciences, Lincoln, NE, USA). Mouse α‐tubulin antibody was used as protein loading controls. The immuno‐related procedures used comply with the recommendations made by the British Journal of Pharmacology (Alexander et al., 2018).

[5] = LC-MS analysis of brain homogenate after oral bepridil; type: in vivo, athymic BALB/c nude mice; conditions: 50 mg·kg^−1 p.o., brain homogenate collected at 2 hr
Description: Athymic BALB/c nude mice were administered bepridil by oral gavage at doses of 50 mg·kg^−1 as described above. Two hours later, mice were killed, and the brain sample was homogenized using the tissue homogenizers (Bertin Instruments, Paris, France) in ice‐cold deionized water at a concentration of 3 ml·g^−1 tissue. Then, methanol with 0.1% formic acid was added to the brain homogenate in a 4:1 proportion (vol/vol) and centrifuged at 18,188× g and 4°C for 10 min to precipitate protein. The supernatant was transferred to a vial to be injected directly into the LC‐MS. The chromatographic system consisted of Shimadzu quaternary pump, vacuum degasser, and autosampler (Shimadzu, LC‐20ADXR, Tokyo, Japan) coupled to https://sciex.com/products/mass-spectrometers/triple-quad-systems, API‐4000 mass spectrometer (SCIEX, Redwood City, CA, USA). HPLC separation was performed on a Thermo Syncronis C8 column 100 × 2.1 mm, 5.0 μm. The mobile phase consisted of methanol (A) and water with 0.1% formic acid (B), measure time was 9 min per run. A flow rate of 0.3 ml·min^−1 was used using a gradient elution of 70% B at 1 min and 5–70% B between 1 and 5 min and maintained for 2 min at 5% B and back to 70% B at 7–7.1 min. […] The CE for bepridil was optimized to 30 V. The precursor‐to‐product ions (Q1 → Q3) selected for bepridil during quantitative optimization were (m/z) 367.1 → 84.3/184.3.

[6] = design: method as in Lipsanen et al., 2013; Mitterreiter et al., 2010; conditions: oral administration or intraperitoneal injection at 50 mg·kg^−1 body weight, two animal studies; ref Lipsanen et al., 2013; Mitterreiter et al., 2010; cited from earlier work
[7] = tested on: U87 and U251 cells; assay: Cell viability assay (Cell Counting Kit-8), ranges given for U87 and U251 together; type: cell-based, Human; conditions: 72 hr
Description: as §1

For `CC(C)COCC(CN(Cc1ccccc1)c1ccccc1)N1CCCC1` (centres unmarked) [Bepridil, N‐benzyl‐N‐(3‐isobutoxy‐2‐pyrrolidin‐1‐yl‐propyl)aniline], the viability at 72 h, 20 µM ([1]; 20 μM) was 30 to 40%, the viability at 72 h, 50 µM ([1]; 50 μM) was 6 to 7% and the viability at 72 h, 100 µM ([1]; 100 μM) was 3 to 4%. The “Effect on [Ca2+]i level in Ca2+-free solution” value [2] was “did not show [Ca^2+]i elevation or fluctuation”, the “Effect on intracellular Ca2+ pool and ER Ca2+ transporting” value [2] was “neither bepridil nor KB‐R7943 affect intracellular Ca^2+ pool and Ca^2+ transporting on the ER membrane” and the “Effect on [Ca2+]i level” value [2] was “quick [Ca^2+]i increase and sustained [Ca^2+]i elevation”. The “Effect on intracellular Na+ [Na+]i level” value [3] was “did not change”, the “Effect on JNK activity” value [4] was “activated” and the “Crossing of the BBB into brain tissue” value [5] was “can cross the BBB and get into brain tissue”. For the same molecule, the “Penetration of the blood–brain barrier” value [6] was “able to penetrate the blood–brain barrier (BBB) and reach the brain”.

With `CS(=O)(=O)O.N=C(N)SCCc1ccc(OCc2ccc([N+](=O)[O-])cc2)cc1` [KB‐R7943, 2‐[4‐[(4‐nitrophenyl)methoxy]phenyl]ethyl ester carbamimidothioic acid methanesulfonate] the “Cell viability, % of control level” value ([7]; 20 μM) was 50–60%, the “Cell viability, % of control level” value ([7]; 50 μM) was 7–18% and the “Cell viability, % of control level” value ([7]; 100 μM) was 2–3%. The “Effect on [Ca2+]i level in Ca2+-free solution” value [2] was “did not show [Ca^2+]i elevation or fluctuation”, the “Effect on intracellular Ca2+ pool and ER Ca2+ transporting” value [2] was “neither bepridil nor KB‐R7943 affect intracellular Ca^2+ pool and Ca^2+ transporting on the ER membrane” and the “Effect on [Ca2+]i level” value [2] was “a short [Ca^2+]i descent in the beginning and a slow [Ca^2+]i increases ensuing”. For the same molecule, the “Effect on intracellular Na+ [Na+]i level” value [3] was “slightly decreased”.
